These are literature values, as cited in US20060110448A1, “Combination of a macrolide and a local anesthetic for the treatment of dermatological diseases” (priority 2003, published 2006).

The series has as its system rat model of allogeneic kidney transplantation. The settings on record: oral administration, suppression of systemic immune response.

For the molecule `C=CC[C@@H]1/C=C(\C)C[C@H](C)C[C@H](OC)[C@H]2O[C@@](O)(C(=O)C(=O)N3CCCC[C@H]3C(=O)O[C@H](/C(C)=C/[C@@H]3CC[C@@H](O)[C@H](OC)C3)[C@H](C)[C@@H](O)CC1=O)[C@H](C)C[C@@H]2OC` [tacrolimus], the “minimum effective dose (MED)” value is given as 14 mg/kg.
